According to US11065266B2, “Method of treating melanoma using an inhibitor of an atypical protein kinase C” (UNIVERSITY OF SOUTH FLORIDA, priority 2016, dated 2021):

Legend:
Type in all cases: cell-based, human
[1] = test system: PCS-200-013 normal melanocyte; assay: Inhibitor dose response curves (cell counts after 3 days); conditions: for effect on cell proliferation of normal melanocytes: dose curve
Procedure: (§1) Dose curves (inhibitor concentrations vs cell population after 3 days) for ICA-1, ACPD, DND and ζ-Stat were obtained for all 3 cell lines as follows. PCS-200-013, SK-MEL-2 and MeWo cells (4×10^4) were cultured in 25 cm^2 flasks and treated with either equal volume of sterile water (vehicle control). Cells were treated every 24 h during 3 day incubation period and cells were then lifted using Trypsin-EDTA solution (1.5 mL/flask) and neutralized with the equal volume of media. Subsequently, live cells were counted using the Scepter, an automated cell counter from Millipore (Billerica, Mass.). The cell growth inhibition for all inhibitors for the two malignant cell lines (SK-MEL-2 and MeWo) were quantified by counting the viable cells at 24 hour intervals. Cell counts obtained from Scepter was compared with the counts obtained from the Cellometer Vision from Nexcelom Bioscience (Lawrence, Mass.).
(§2) Dose curves for ACPD and DNDA were obtained to investigate the effect on cell proliferation of normal and malignant cell lines over a wide range of concentrations. […] ACPD decreased proliferation by 20% for 1.5 μM (p≤0.01), 48% for 2.5 μM (p≤0.01) and 51% for 3.5 μM (p≤0.001)(FIG. 5B). DNDA decreased by 17% for 500 nM (p≤0.01), 24% for 1.5 μM(p≤0.01), 52%) for 2.5 µM (p≤0.01) and 57 for 3.5 μM (p≤0.01)(FIG. 5C) in SK-MEL-2 cells. ACPD decreased proliferation by 28% for 500 nM (p≤0.01), 41% for 1.5 μM (p≤0.01), 54% for 2.5 µM (p≤0. 01) and 58% for 3.5 μM (p≤0.01) (FIG. 5D). DNDA decreased proliferation by 37% for 500 nM (p≤0.01), 41% for 1.5 μM (p≤0.01), 46% for 2.5 μM (p≤0.01) and 48% for 3.5 μM (p≤0.01) (FIG. 5E) in the MeWo cells.

SK-MEL-2 cells [2] = assay: as above
Procedure: as §1, §2

MeWo cells [3] = assay: as above
Procedure: as §1, §2

SK-MEL-2 cells [4] = assay: BME invasion assay (Calcein-AM fluorescence); conditions: 2.5 μM, vs control
Procedure: (§3) This invasion assay was performed to investigate the effect of ACPD and DNDA on malignant melanoma cell invasion in vitro. Even though it is similar to the Boyden chamber assay, it avoids scraping off the Matrigel and staining to assess migrated number of cells through filter. […] Migrated cells were stained with a fluorescent marker, Calcein-AM. Live cells cleave the ester (AM) of the molecule in order to produce fluorescence. Thus, the amount of fluorescence accumulated in the bottom chamber is proportional to the number of invaded cells. The relative fluorescent units (excitation at 485 and emission at 528 nm) after 2 h exposure were reported for inhibitor treatments for both SK-MEL-2 and MeWo cell lines compared to controls (FIG. 8D).

MeWo cells [5] = assay: BME invasion assay (Calcein-AM fluorescence); conditions: 2.5 μM, vs control
Procedure: as §3

SK-MEL-2 cells [6] = assay: Western blot of protein levels; parameters: reduction of PKC-ι level / reduction of pPKC-ι level / reduction of PKC-ζ level / reduction of pPKC-ζ level: concentration or dose not given beside the values; conditions: for reduction of PKC-ζ level / reduction of PKC-ι level / reduction of pPKC-ζ level / reduction of pPKC-ι level: vs respective control
Procedure: Approximately 2×10^5 cells from PCS-200-013 and SK-MEL-2 cell lines were plated in T25 flasks until they become 70% confluent. Confluent cells were semi-synchronized by contact inhibition and serum starvation for 48 hrs. Subsequently, cells were incubated with serum and atypical inhibitors. The cells were removed at specific times and were placed in ice to terminate the incubation. Cells were washed at least two times with ice cold DPBS. Cells were then scrapped, re-suspended and sonicated in 500 μL of homogenization buffer (50 mM HEPES—pH 7.5), 150 mM NaCl, 0.1% Triton X, 1 mM EDTA (ethylenediaminetetraacetic acid), 2 mM EGTA [glycol-bis (2-aminoethylether)-N, N, N′,N′-tetraacetic acid], 0.1 mM orthovanadate, 1 mM NaF, 2 mM PMSF (phenylmethylsulphonylfluoride), 1 mM DTT (dithiothreitol) and 0.15 U/mL aprotinin. Cell suspensions was then sonicated and centrifuged at 100,000 g for 30 minutes. The protein concentrations was determined using Bradford method. Subsequently, approximately 800 μg of proteins were immunoprecipitated with the antibody against desired protein. In some cases cell lysates were suspended with anti-HFS-1 antibody, rocking overnight at 4° C. Agarose beds were added after 24 hrs. Then the complex of cell lysate-anti HSF-1 antibody-agarose beads was rocked at 4° C. for 2 hrs. After washing the beads, approximately […] the sample loading buffer was added to dissolve all the protein on the beads. Proteins were then separated on sodium dodecyl sulfate polyacrylamide gel electrophoresis (SDS-PAGE) and transblotted followed by immunoblotting with anti-PKC-ζ or anti-PKC-ι or anti-HSF-1 antibody or phosphospecific antibodies. Immunoreactive bands were visualized with enhanced chemiluminescence. […]
Western blots (WB) were performed to investigate the effect of ACPD and DNDA on the expression of aPKCs on malignant melanoma. […] DNDA decreased the levels of PKC-ι by 52%, pPKC-ι by 33% in SK-MEL-2 cells and by 27% of PKC-ι and pPKC-ι by 20% in MeWo cells.
DNDA reduced the levels of PKC-ζ by 33%, pPKC-ζ by only 17% in SK-MEL-2 cells and by 60% of PKC-ζ and pPKC-ζ by 29% in MeWo cells. All values (percent) were calculated compared to their respective control in Western blot. B-actin was used as the internal control to ensure that equal amounts of proteins were loaded in each lane in SDS-PAGE.

[7] = upon increasing concentration, vs control

Row | Structure (SMILES) | effect on cell proliferation of normal melanocytes [1] | decrease of proliferation (SK-MEL-2 cells [2]; 1.5 μM) [%] | decrease of proliferation (SK-MEL-2 cells [2]; 2.5 μM) [%] | decrease of proliferation (SK-MEL-2 cells [2]; 3.5 μM) [%] | decrease of proliferation (MeWo cells [3]; 500 nM) [%] | decrease of proliferation (MeWo cells [3]; 1.5 μM) [%] | decrease of proliferation (MeWo cells [3]; 2.5 μM) [%] | decrease of proliferation (MeWo cells [3]; 3.5 μM) [%] | reduction of invasion (SK-MEL-2 cells [4]) [%] | reduction of invasion (MeWo cells [5]) [%] | decrease of Bcl-2 levels (SK-MEL-2 cells [6]) [%] | decrease of CD44 (SK-MEL-2 cells [6]) [%] | decrease of Vimentin levels (SK-MEL-2 cells [6]) [%] | decrease of β-catenin (SK-MEL-2 cells [6]) [%] | increase of Caspase-3 levels (SK-MEL-2 cells [6]) [%] | increase of E-cadherin levels (SK-MEL-2 cells [6]) [%] | increase of NF-KB p65 levels (SK-MEL-2 cells [6]) [%] | increase of cleaved PARP levels (SK-MEL-2 cells [6]) [%] | reduction of PKC-ζ level (SK-MEL-2 cells [6]) [%] | reduction of PKC-ι level (SK-MEL-2 cells [6]) [%] | also measured
1 | CC(=O)C1=C(O)CCC1=O [ACPD, 2-acetyl-1,3-cyclopentanedione] | did not show a significant effect | 20 | 48 | 51 | 28 | 41 | 54 | 58 | 24 | 21 | 13 | 19 | 51 | 39 | 26 | 18 | 31 | 14 | 42 | 43 | decrease of PARP levels (SK-MEL-2 cells [6]): 33%; PKC-ζ level (SK-MEL-2 cells [6]; [7]): decreased; PKC-ι level (SK-MEL-2 cells [6]; [7]): good decrease; reduction of pPKC-ζ level (SK-MEL-2 cells [6]): 29%; reduction of pPKC-ι level (SK-MEL-2 cells [6]): 31%
2 | Nc1c(S(=O)(=O)O)cc2cc(S(=O)(=O)O)ccc2c1N [DNDA, 3,4-diamino-2,7-naphthalenedisulfonic acid] | did not show a significant effect | 24 | 52 | 57 | 37 | 41 | 46 | 48 | 32 | 32 | 7 | 27 | 49 | 13 | 32 | 28 | 49 | 16 | 33 | 52 | inhibition of cell proliferation of normal melanocytes ([1]; 3.5 μM): 13.5%; decrease of proliferation (SK-MEL-2 cells [2]; 500 nM): 17%; increase of PARP levels (SK-MEL-2 cells [6]): 12%; reduction of pPKC-ζ level (SK-MEL-2 cells [6]): 17%; reduction of pPKC-ι level (SK-MEL-2 cells [6]): 33%
